Where a SMILES comes first, the peptide text is derived from it. Bridges are numbered along the chain shown (N, C = ends).
Experiments:
[1] = molecular target: T1, Peptidyl-prolyl cis-trans isomerase NIMA-interacting 1 (Homo sapiens, UniProt Q13526); test: Inhibition of Pin1 (unknown origin)
[2] = Growth inhibition of human […] cells; type: functional
[3] = molecular target: T1, Peptidyl-prolyl cis-trans isomerase NIMA-interacting 1; test: Inhibition of Pin1 (unknown origin) using Suc-Ala-Glu-cis-Pro-Phe-pNA as substrate
[4] = molecular target: T1, Peptidyl-prolyl cis-trans isomerase NIMA-interacting 1; test: Inhibition of Pin1 in human MCF7 cells assessed as inhibition of etoposide-induced p53 transcription at 30 uM by luciferase reporter gene assay relative to control; type: cell-based
[5] = molecular target: T1, Peptidyl-prolyl cis-trans isomerase NIMA-interacting 1; test: Reversible inhibition of human Pin1
[6] = molecular target: T1, Peptidyl-prolyl cis-trans isomerase NIMA-interacting 1; test: Inhibition of Pin1 in human MCF7 cells assessed as inhibition of etoposide-induced p53 transcription at 10 uM by luciferase reporter gene assay relative to control; type: cell-based
[7] = molecular target: T1, Peptidyl-prolyl cis-trans isomerase NIMA-interacting 1; test: Inhibition of human Pin1
[8] = molecular target: T1, Peptidyl-prolyl cis-trans isomerase NIMA-interacting 1; test: Binding affinity to GST-tagged Pin1 (unknown origin) by SPR spectroscopic analysis
[9] = molecular target: Peptidyl-prolyl cis-trans isomerase NIMA-interacting 4 (Homo sapiens, UniProt Q9Y237); test: Inhibition of Par14 (unknown origin)
[10] = molecular target: T1, Peptidyl-prolyl cis-trans isomerase NIMA-interacting 1; test: Inhibition of Pin1 (unknown origin) using Suc-Ala-Glu-Pro-Phe-MCA as substrate after 120 secs by fluorescence microtiter plate reader analysis
[11] = molecular target: T1, Peptidyl-prolyl cis-trans isomerase NIMA-interacting 1; test: Competitive inhibition of Pin1 (unknown origin) by Lineweaver-Burk plot analysis
[12] = molecular target: T1, Peptidyl-prolyl cis-trans isomerase NIMA-interacting 1; test: Inhibition of GST-tagged Pin1 (unknown origin) using Suc-AEPF-pNA and WFYpSPR-pNA as substrate after 5 mins
[13] = molecular target: T1, Peptidyl-prolyl cis-trans isomerase NIMA-interacting 1; test: Inhibition of full length Pin1 (unknown origin) using WFY(pS)PR-pNA as substrate by spectrophotometric analysis
[14] = test system: MEF; test: Growth inhibition of MEF expressing Pin1; type: functional; settings: Mus musculus
[15] = Growth inhibition of Pin1-deficient MEF; type: cell-based; settings: mouse, Pin1-deficient MEF cells

T1 sequence (Q13526 whole entry): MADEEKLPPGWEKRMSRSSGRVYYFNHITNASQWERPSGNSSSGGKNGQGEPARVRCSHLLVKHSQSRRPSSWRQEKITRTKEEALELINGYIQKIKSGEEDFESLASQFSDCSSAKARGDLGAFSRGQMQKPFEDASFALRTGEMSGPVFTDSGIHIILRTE
Sequence of Peptidyl-prolyl cis-trans isomerase NIMA-interacting 4 (Q9Y237 whole entry): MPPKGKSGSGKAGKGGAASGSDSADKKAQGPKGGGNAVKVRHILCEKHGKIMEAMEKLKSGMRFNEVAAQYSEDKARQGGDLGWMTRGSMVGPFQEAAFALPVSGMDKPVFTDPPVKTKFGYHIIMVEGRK

O=C(N[C@@H](COP(=O)(O)O)CN1CCC[C@H]1C(=O)NCCc1c[nH]c2ccccc12)OCC1c2ccccc2-c2ccccc21
IC50 [1]: 6000 nM

CC(=O)N[C@@H](Cc1ccccc1)C(=O)N[C@@H](Cc1ccccc1)C(=O)N[C@H](/C=C1/CCC[C@H]1C(=O)N[C@@H](CCCNC(=N)N)C(N)=O)COP(=O)(O)O
GI50 [2]: 8000 nM | IC50 [3]: 1500 nM

COc1ccc(F)cc1C(=O)[C@@]1(C)CCc2ccccc21
inhibition [4]: 25%

CC(=O)N[C@@H](C)C(=O)N[C@@H](C)C(=O)N[C@H](COP(=O)(O)O)C(=O)N1CCC[C@H]1C(=O)N[C@@H](CCCNC(=N)N)C(=O)Nc1ccc([N+](=O)[O-])cc1
IC50 [5]: 1000 nM

COc1ccc(F)cc1C(=O)[C@]1(C)CCc2ccccc21
inhibition [6]: > 75% | IC50 [1]: 5600 nM

O=C(O)C[C@@H](C/C=C/c1cccc(F)c1)NC(=O)c1ccc2ccccc2c1
IC50 [7]: 890 nM

O=c1ccsn1-c1ccc(F)c(Cl)c1
IC50 [8]: 6100 nM

CCOC(=O)CN1C(=O)c2ccc3c4c(ccc(c24)C1=O)C(=O)N(CC(=O)OCC)C3=O
IC50 [9]: 1500 nM | IC50 [10]: 1500 nM

CCCCCc1ccc(CCC(=O)N[C@H](Cc2ccc(O)cc2)C(=O)N[C@@H](Cc2ccc(O)cc2)C(=O)N[C@@H](Cc2ccc3ccccc3c2)C(=O)O)cc1
IC50 [7]: 600 nM

S=C(SC(=S)N1CCCCC1)N1CCCCC1
Ki [11]: 50 nM | IC50 [1]: 4000 nM

O=C(N[C@H](Cc1cccc(F)c1)c1nn[nH]n1)c1ccc2ccccc2c1
IC50 [7]: 4000 nM

CC[C@H](C)[C@@H]1NC(=O)[C@H](CCC(=O)O)NC(=O)[C@H](C(C)C)NC(=O)[C@H](CCC(=O)O)NC(=O)[C@@H]2CCCN2C(=O)[C@H](Cc2ccc(O)cc2)NC(=O)[C@H](CCCN=C(N)N)NC(=O)[C@@H](N)CSSC[C@@H](C(=O)O)NC1=O [CYCLIC CRYPEVEIC] (H-CRYPEVEIC-OH; disulfide 1-9)
IC50 [12]: 500 nM

O=C(O[C@@H]1Cc2c(O)cc(O)cc2O[C@@H]1c1cc(O)c(O)c(O)c1)c1cc(O)c(O)c(O)c1 [EPIGALOCATECHIN GALLATE]
IC50 [13]: 20000 nM | GI50 [14]: 7000 nM | GI50 [15]: 14000 nM

O=C(c1cc(-c2c(O)c([N+](=O)[O-])cc(F)c2[N+](=O)[O-])cc([N+](=O)[O-])c1O)C1CCc2ccccc21 (racemic)
IC50 [5]: 200 nM

Cc1oc(-c2ccc(CN)cc2)cc1C(=O)N[C@H](Cc1nc2ccccc2[nH]1)C(=O)O
IC50 [1]: 25 nM

Source: ChEMBL document CHEMBL2407033, “Pin1 inhibitors: Pitfalls, progress and cellular pharmacology” (Bioorg Med Chem Lett, 2013)
